In general, EC50 refers to the midpoint of the concentration-response curve. Low values mean a more potent agent, high ones a less potent agent.

The target of this assay is T1, GLP-1 Receptor (Homo sapiens, UniProt P43220).
T1 construct: host or cells: HEK293/CRE-Luc (HEK293/GLPIR/CRE-LUC)
T1 sequence (P43220 24-463, species assumed): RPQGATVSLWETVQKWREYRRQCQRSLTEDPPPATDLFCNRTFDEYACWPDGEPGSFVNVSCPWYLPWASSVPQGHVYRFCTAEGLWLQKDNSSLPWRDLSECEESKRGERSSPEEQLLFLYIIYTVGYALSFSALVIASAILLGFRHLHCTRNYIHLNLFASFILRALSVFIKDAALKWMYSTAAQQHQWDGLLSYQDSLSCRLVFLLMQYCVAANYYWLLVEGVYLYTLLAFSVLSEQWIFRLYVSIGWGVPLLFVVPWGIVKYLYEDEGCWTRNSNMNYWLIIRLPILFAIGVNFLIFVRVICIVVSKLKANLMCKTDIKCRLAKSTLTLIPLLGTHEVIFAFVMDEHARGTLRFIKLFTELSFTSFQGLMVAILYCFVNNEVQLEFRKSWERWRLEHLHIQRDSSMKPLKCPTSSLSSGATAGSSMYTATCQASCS
Nature of the assay: GLP-1R agonist cAMP stimulation assay. It counts as cell-based. As to conditions: HEK293/CRE-Luc cell line stably expressing the GLP-1 Receptor; 30 min incubation; cAMP dynamic 2 Kit (Cisbio). As to the method:
Activation of GLP-1 receptor is known to stimulate cyclic AMP (cAMP) production in cells which indicates primary coupling to the Gas subunit of the G protein heterotrimeric complex.
To optimize functional activity directed toward Gas coupling, a HEK293/CRE-Luc cell line developed by HDB stably expressing the GLP-1 Receptor was used. 200× concentration of compound working solutions were prepared (Agilent Technologies Bravo) with ½ log serial dilution in 384-well Echo LDV plate (Labcyte, Cat #LP-0200). 50 nL/well 200× concentration of compound working solutions were moved to 384-well white low volume plate (Greiner, Cat #784075) using Labcyte ECHO550. 1×10^5 cells/mL HEK293/GLPIR/CRE-LUC (HD Biosciences) cell suspensions prepared with assay buffer [DPBS containing 0.5 mM IBMX (Sigma, Cat #15879) and 0.10% BSA (GENVIEW, Cat #FA016-100g)], 10 μL cell suspensions were added to each well of previous generated assay plate which already contains 50 nL compound at 200× concentration using ThermoFisher Multidrop Combi (1000 cells/well). Seal the plate and incubate at 37° C. with 5% CO2 for 30 min.
After incubation the cAMP assay signal was generated using cAMP dynamic 2 Kit (Cisbio). 5 μL cAMP-d2 working solution was added to each well, followed with 5 μL Anti-cAMP antibody-cryptate working solution added to each well using ThermoFisher Multidrop Combi. Incubate at room temperature for 1 hour protected from light. Read the fluorescence at 665 and 615 nm with Reader PerkinElmer EnVision.
Compound `Cc1cc(-c2csc(C(=O)O)n2)cnc1CN1CCC(c2cccc3c2OC(C)(c2ccc(Cl)cc2F)O3)CC1` (centres unmarked) [E-7] displayed a half-maximal effective concentration (EC50) of 1 to 100 nM.

`Cc1cc(-c2nnc(-c3cccnc3)s2)cnc1CN1CCC(c2cccc(OCc3ccc(Cl)cc3F)n2)CC1` [E-16]: the EC50 is greater than 100 nM.

`C[C@]1(c2ccc(Cl)cc2F)Oc2cccc(C3CCN(Cc4ncc(-c5nnc(C(F)(F)F)[nH]5)cc4NC4CCCC4)CC3)c2O1` [F-11, (S)-2-((4-(2-(4-chloro-2-fluorophenyl)-2-methylbenzo[d][1,3]dioxol-4-yl)piperidin-1-yl)methyl)-N-cyclopentyl-5-(5-(trifluoromethyl)-4H-1,2,4-triazol-3-yl)pyridin-3-amine] came in with an EC50 of 1 to 100 nM. Next, `C[C@]1(c2ccc(Cl)cc2F)Oc2cccc(C3CCN(Cc4ncc(-c5nnc(C(F)(F)F)[nH]5)cc4C4CCCOC4)CC3)c2O1` (some centres unmarked) [F-10]: 1 to 100 nM; `C[C@]1(c2ccc(Cl)cc2F)Oc2cccc(C3CCN(Cc4ncc(-c5nnc(C(F)(F)F)[nH]5)cc4C4CCOCC4)CC3)c2O1` [F-6, (S)-2-((4-(2-(4-chloro-2-fluorophenyl)-2-methylbenzo[d][1,3]dioxol-4-yl)piperidin-1-yl)methyl)-3-(tetrahydro-2H-pyran-4-yl)-5-(5-(trifluoromethyl)-4H-1,2,4-triazol-3-yl)pyridine]: 1 to 100 nM; `COCCc1cc(-c2nnc(C(=O)OC)[nH]2)cnc1CN1CCC(c2cccc3c2O[C@@](C)(c2ccc(Cl)cc2F)O3)CC1` [E-18]: 1 to 100 nM. Then `C[C@]1(c2ccc(Cl)cn2)Oc2cccc(C3CCN(Cc4ncc(C(=O)NC5(C#N)CC5)cc4CC4(C#N)CC4)CC3)c2O1` [D-6], with greater than 100 nM; and `Cc1cc(-c2noc(-c3cccnc3)n2)cnc1CN1CCC(c2cccc(OCc3ccc(Cl)cc3F)n2)CC1` [E-12], with greater than 100 nM; and `CC1(C#N)CN(c2cc(-c3nnc(C(F)(F)F)[nH]3)cnc2CN2CCC(c3cccc4c3O[C@@](C)(c3ccc(Cl)cc3F)O4)CC2)C1` [F-18, (S)-1-(2-((4-(2-(4-chloro-2-fluorophenyl)-2-methylbenzo[d][1,3]dioxol-4-yl)piperidin-1-yl)methyl)-5-(5-(trifluoromethyl)-4H-1,2,4-triazol-3-yl)pyridin-3-yl)-3-methylazetidine-3-carbonitrile], with 1 to 100 nM.

The compound `C[C@]1(c2ccc(Cl)cc2F)Oc2cccc(C3CCN(Cc4ncc(-c5nnc(C(F)(F)F)[nH]5)cc4N4CCOC4=O)CC3)c2O1` [F-2, 3-[2-({4-[(2S)-2-(4-chloro-2-fluorophenyl)-2-methyl-2H-1,3-benzodioxol-4-yl]piperidin-1-yl}methyl)-5-[5-(trifluoromethyl)-4H-1,2,4-triazol-3-yl]pyridin-3-yl]-1,3-oxazolidin-2-one] returned an EC50 of 1 to 100 nM. Next, `CC1(c2ccc(Cl)cc2F)Oc2cccc(C3CCN(Cc4ncc(-c5nnc(C(F)(F)F)[nH]5)cc4OC4CCCC4)CC3)c2O1` (centres unmarked) [F-12, 2-((4-(2-(4-chloro-2-fluorophenyl)-2-methylbenzo[d][1,3]dioxol-4-yl)piperidin-1-yl)methyl)-3-(cyclopentyloxy)-5-(5-(trifluoromethyl)-4H-1,2,4-triazol-3-yl)pyridine]: 1 to 100 nM. Then `C[C@]1(c2ccc(C(N)=O)cc2F)Oc2cccc(C3CCN(Cc4ncc(-c5nnc(C(F)(F)F)[nH]5)cc4CC4(C#N)CC4)CC3)c2O1` [A-1], with less than 1 nM; and `C[C@]1(c2ccc(Cl)cc2F)Oc2cccc(C3CCN(Cc4ncc(-c5nnc(C(F)(F)F)[nH]5)cc4CS(=O)(=O)C4CC4)CC3)c2O1` [F-16], with 1 to 100 nM. Next, `COCCc1cc(-c2nnc(C(=O)O)[nH]2)cnc1CN1CCC(c2cccc3c2O[C@@](C)(c2ccc(Cl)cc2F)O3)CC1` [E-11]: greater than 100 nM. For the compound `CC1COCCN1c1cc(-c2nnc(C(F)(F)F)[nH]2)nnc1CN1CCC(c2cccc3c2O[C@@](C)(c2ccc(Cl)cc2F)O3)CC1` (stereo partly drawn) [F-3, 4-[3-({4-[(2S)-2-(4-chloro-2-fluorophenyl)-2-methyl-2H-1,3-benzodioxol-4-yl]piperidin-1-yl}methyl)-6-[5-(trifluoromethyl)-4H-1,2,4-triazol-3-yl]pyridazin-4-yl]-3-methylmorpholine], the EC50 lay in the range of 1 to 100 nM. Next, `Cc1cc(-c2cnc(C(=O)O)s2)cnc1CN1CCC(c2cccc3c2OC(C)(c2ccc(Cl)cc2F)O3)CC1` (centres unmarked) [E-9]: 1 to 100 nM. Next, `C[C@]1(c2ccc(Cl)cc2F)Oc2cccc(C3CCN(Cc4ncc(-c5nnc(C(=O)NC6CC6)[nH]5)cc4CC4(C#N)CC4)CC3)c2O1` [E-5]: less than 1 nM; `Cc1cc(-c2nc(C(=O)O)cs2)cnc1CN1CCC(c2cccc3c2OC(C)(c2ccc(Cl)cc2F)O3)CC1` (centres unmarked) [E-17]: greater than 100 nM. Then `Cc1cc(-c2nnc(-c3cccnc3)[nH]2)cnc1CN1CCC(c2cccc3c2O[C@@](C)(c2ccc(Cl)cc2F)O3)CC1` [E-6], with 1 to 100 nM; and `Cc1cc(-c2ccncc2)cnc1CN1CCC(c2cccc3c2OC(C)(c2ccc(Cl)cc2F)O3)CC1` (centres unmarked) [E-14], with greater than 100 nM; and `CC1CN(c2cc(-c3nnc(C(F)(F)F)[nH]3)nnc2CN2CCC(c3cccc4c3O[C@@](C)(c3ccc(Cl)cc3F)O4)CC2)CCO1` (stereo partly drawn) [F-17, 4-(3-((4-((S)-2-(4-chloro-2-fluorophenyl)-2-methylbenzo[d][1,3]dioxol-4-yl)piperidin-1-yl)methyl)-6-(5-(trifluoromethyl)-4H-1,2,4-triazol-3-yl)pyridazin-4-yl)-2-methylmorpholine], with 1 to 100 nM. Compound `COc1cc(-c2nnn[nH]2)cnc1CN1CCC(c2cccc3c2OC(C)(c2ccc(Cl)cc2F)O3)CC1` (centres unmarked) [F-20, 2-((4-(2-(4-chloro-2-fluorophenyl)-2-methylbenzo[d][1,3]dioxol-4-yl)piperidin-1-yl)methyl)-3-methoxy-5-(1H-tetrazol-5-yl)pyridine] showed a concentration for a half-maximal effect (EC50) greater than 100 nM. Next, `C[C@]1(c2ccc(Cl)cc2F)Oc2cccc(C3CCN(Cc4ncc(-c5nnc(C(F)(F)F)[nH]5)cc4N4CCC(O)C4)CC3)c2O1` (stereo partly drawn) [F-7, 1-[2-({4-[(2S)-2-(4-chloro-2-fluorophenyl)-2-methyl-2H-1,3-benzodioxol-4-yl]piperidin-1-yl}methyl)-5-[5-(trifluoromethyl)-4H-1,2,4-triazol-3-yl]pyridin-3-yl]pyrrolidin-3-ol]: 1 to 100 nM; `CNC(=O)c1cnc(CN2CCC(c3cccc4c3O[C@@](C)(c3ccc(Cl)cc3F)O4)CC2)c(CC2(C#N)CC2)c1` [D-4]: 1 to 100 nM. `C[C@]1(c2ccc(Cl)cc2F)Oc2cccc(C3CCN(Cc4ncc(-c5nnc(C(F)(F)F)[nH]5)cc4N4CC5CC4CO5)CC3)c2O1` (stereo partly drawn) [F-5, 5-[2-({4-[(2S)-2-(4-chloro-2-fluorophenyl)-2-methyl-2H-1,3-benzodioxol-4-yl]piperidin-1-yl}methyl)-5-[5-(trifluoromethyl)-4H-1,2,4-triazol-3-yl]pyridin-3-yl]-2-oxa-5-azabicyclo[2.2.1]heptane] gave an EC50 of 1 to 100 nM. Then `CNC(=O)c1nnc(-c2cnc(CN3CCC(c4cccc5c4O[C@@](C)(c4ccc(Cl)cc4F)O5)CC3)c(CC3(C#N)CC3)c2)[nH]1` [E-4], with less than 1 nM; and `C[C@]1(c2ccc(Cl)cc2F)Oc2cccc(C3CCC(Cc4ncc(-c5nnc(C(N)=O)[nH]5)cc4CC4(C#N)CC4)CC3)c2O1` (some centres unmarked) [B-1], with less than 1 nM. Next, `CC1(C#N)CCN(c2cc(-c3nnc(C(F)(F)F)[nH]3)cnc2CN2CCC(c3cccc4c3O[C@@](C)(c3ccc(Cl)cc3F)O4)CC2)C1` (stereo partly drawn) [F-13, 1-(2-((4-((S)-2-(4-chloro-2-fluorophenyl)-2-methylbenzo[d][1,3]dioxol-4-yl)piperidin-1-yl)methyl)-5-(5-(trifluoromethyl)-4H-1,2,4-triazol-3-yl)pyridin-3-yl)-3-methylpyrrolidine-3-carbonitrile]: 1 to 100 nM; `C[C@]1(c2ccc(Cl)cc2F)Oc2cccc(C3CCN(Cc4ncc(-c5nnc(C(=O)O)[nH]5)cc4CC4(C#N)CC4)CC3)c2O1` [E-19]: less than 1 nM. The compound `Cc1cc(-c2nnc(C3CCCOC3)[nH]2)cnc1CN1CCC(c2cccc3c2O[C@@](C)(c2ccc(Cl)cc2F)O3)CC1` (some centres unmarked) [E-10] returned an EC50 greater than 100 nM. With `Cc1cc(-c2nc(-c3cccnc3)no2)cnc1CN1CCC(c2cccc(OCc3ccc(Cl)cc3F)n2)CC1` [E-15], the EC50 was greater than 100 nM. In the case of `N#CC1(Cc2cc(C(=O)NC3(C#N)CC3)cnc2CN2CCC(c3ccc(F)c(OCc4ccc(Cl)cc4F)n3)CC2)CC1` [D-7], the EC50 is greater than 100 nM. Then `COCCNC(=O)c1cnc(CN2CCC(c3cccc4c3O[C@@](C)(c3ccc(Cl)cc3F)O4)CC2)c(CC2(C#N)CC2)c1` [D-3], with 1 to 100 nM; and `COCCNc1cc(-c2nnc(C(F)(F)F)[nH]2)cnc1CN1CCC(c2cccc3c2O[C@@](C)(c2ccc(Cl)cc2F)O3)CC1` [F-4, 2-({4-[(2S)-2-(4-chloro-2-fluorophenyl)-2-methyl-2H-1,3-benzodioxol-4-yl]piperidin-1-yl}methyl)-N-(2-methoxyethyl)-5-[5-(trifluoromethyl)-4H-1,2,4-triazol-3-yl]pyridin-3-amine], with 1 to 100 nM.

Regarding `COCCNC(=O)c1nnc(-c2cnc(CN3CCC(c4cccc5c4O[C@@](C)(c4ccc(Cl)cc4F)O5)CC3)c(CC3(C#N)CC3)c2)[nH]1` [E-3], the concentration for a half-maximal effect (EC50) is less than 1 nM.

(Values after patent US20250177362A1, “HETEROCYCLIC GLP-1 AGONISTS” (Gasherbrum Bio, Inc., priority 2022, published 2025).)
